# Laboratory results reported in US9440980B2, “Remedy for diabetes” (EA Pharma Co., Ltd., priority 2007, dated 2016).
# Assays:
# Gβ1γ2-Myc = biological target: T1, Gβ1γ2-Myc (Homo sapiens, UniProt P62873); experiment: Gβ binding ability using Gβ-expressing insect cell extract solution (PD10 method); details: binding strength Compound 1>Compound 3>Compound 6, FIG. 8
# T1 construct: made in house; host or cells: Sf21 insect cells (baculovirus), unpurified Triton X-100 extract
# Method: The PD10 method was carried out as follows. To a microtube were added 250 μl of an RBA buffer, 100 μl of an RBA buffer containing 0 or 500 μM of the unlabeled Compound 1, 100 μl of the above extract solution, and 50 μl of an RBA buffer containing 2.5 μM of the ^3H-labeled Compound 1 successively, and the resultant mixture was stirred and left at room temperature for 1 hour. The entire reaction solution (0.5 ml) was added to a PD10 column sufficiently substituted with the RBA buffer, 2 ml of the RBA buffer was passed through the PD10 column, and thereafter further eluate by 1.5 ml of the RBA buffer was collected as a high-molecular fraction containing the protein, 15 ml of a liquid scintillator was added thereto, and the amount of the ^3H-labeled Compound 1 contained in the high-molecular fraction was measured by a scintillation counter. The count of the sample added with the unlabeled Compound 1 at the final concentration of 100 μM was considered to correspond to the nonspecific binding, the difference between the nonspecific binding count and the count of the sample not added with the unlabeled Compound 1 was considered to correspond to the specific binding, and thus the amount of the binding protein contained in the extract solution was evaluated.
# Using the frozen insect cell Sf21 expressing the Gβ1, Myc-Gγ2, and Gαi1-His prepared in Example 19 (8), 10^7 cells were melted and suspended in 1.3 ml of an RBA buffer containing 1% Triton X-100 (75 mM Tris-HCl, 12.5 mM MgCl2, 2 mM EDTA, pH 7.4). […]
# The inhibitory activity against the binding of the ^3H-labeled Compound 1 to the Gβ1γ2-Myc was considered to correspond to the activity of the compounds for binding to the Gβ1γ2-Myc. Thus, the activity of each of Compounds 1, 3, and 6 for binding to the Gβ1γ2-Myc was measured using the above extract solution. The activity of the ^3H-labeled Compound 1 for binding to the protein contained in the extract solution was measured by the PD10 method described in Example 15 (1). […]
# [1] = tested on: PI3-kinase β (p110β/p85α); experiment: PI3-kinase subtype activity with or without Gβ1γ2-Myc (PIP3 production, 32P-ATP, TLC); assay type: biochemical
# Method: The subtypes α (PI3 Kinase (p110α/p85α), active, Upstate, Product No. 14-602), β (PI3 Kinase (p110β/p85α), active, Upstate, Product No. 14-603), γ ((PI3KγHis-GST (Phosphoinositide 3-kinase p110γHis/p101GST) human, Recombinant, Sf9 insect cell, JENA Bioscience, Product No. PR-347S), and δ (PI3 Kinase (p110δ/p85α), active, Upstate, Product No. 14-604) were used as the PI3-kinase subtypes respectively. A PI3K buffer (40 mM HEPES-Na (pH 7.4), 120 mM NaCl, 1 mM EGTA, 1 mM dithiothreitol, 1 mM β glycerophosphoric acid, 10 mM MgCl2, 0.1% BSA) was used as a buffer in the following reactions.
# To the lipid micelle solution (125 μl) was added the purified Gβ1γ2-Myc solution (250 μl, 10 μg/ml) obtained in (1), and the resultant solution was stirred and left in ice for 10 minutes. 30 μl of the lipid micelle solution containing the Gβγ2-Myc was dispensed into 1.5-ml microtubes, and to these were added 5 μl of a compound solution and 5 μl of each PI3-kinase subtype (α, β, and δ: 5 μg/ml, γ: 2.5 μg/ml) successively. The mixture was left at room temperature for 10 minutes, and a 40-μM ATP solution (10 μl) containing ^32P-γ-ATP was added thereto, to initiate a reaction. The amount of the ^32P-γ-ATP added was about 300 kBq per one reaction. The reaction was carried out at room temperature for 30 minutes, and stopped by adding 80 μl of 1N HCl at ice temperature. 300 μl of a chloroform:methanol (1:1) solution was added thereto, the mixture was stirred to extract the lipid, and the organic layer was washed with 80 μl of 1N HCl twice. The solvent was removed from the residual organic layer under reduced pressure, the residue was dissolved in 20 μl of a chloroform:methanol (4:1) solution, the entire solution was spotted on a TLC plate (Merck, Kieselgel 60), and a TLC was carried out for about 4 hours using a developer of acetic acid:water:1-propanol (4:31:65). The TLC plate was treated with oxalic acid beforehand such that the plate was sufficiently developed by a 40% methanol solution containing 1% of potassium oxalate, dried overnight, and activated at 110° C. for 30 minutes. After the developing, the TLC plate was sufficiently dried and exposed using an imaging plate, and data were obtained by BAS2000 (FUJIFILM Corporation). The data were analyzed by a software of BAS2000, the analysis region was controlled such that spots of phosphatidylinositol-[3,4,5]-trisphosphate (PIP3) in the TLC lanes have the same areas, and the energy (PSL) corresponding to each radioactivity was quantified in the region.
# A lipid micelle solution was prepared in the same manner as (2). […] The reaction was carried out at room temperature for 15 minutes, the resultant was treated in the same manner as (2), and the amount of the produced PIP3 was measured.
# [2] = biological target: T2, binding between the Gβ and the p110β (PI3-kinase β) (Homo sapiens, UniProt P42338+P62873); experiment: Binding of Gβ1γ2-Myc to PI3-kinase β (immunoprecipitation, Western blot); details: Compound 1 (0.1 μM) and Compound 6 (1 mM) approximately the same effect; FIG. 15
# T2 construct: purchased Upstate 14-603
# T2 sequence (P42338 whole entry): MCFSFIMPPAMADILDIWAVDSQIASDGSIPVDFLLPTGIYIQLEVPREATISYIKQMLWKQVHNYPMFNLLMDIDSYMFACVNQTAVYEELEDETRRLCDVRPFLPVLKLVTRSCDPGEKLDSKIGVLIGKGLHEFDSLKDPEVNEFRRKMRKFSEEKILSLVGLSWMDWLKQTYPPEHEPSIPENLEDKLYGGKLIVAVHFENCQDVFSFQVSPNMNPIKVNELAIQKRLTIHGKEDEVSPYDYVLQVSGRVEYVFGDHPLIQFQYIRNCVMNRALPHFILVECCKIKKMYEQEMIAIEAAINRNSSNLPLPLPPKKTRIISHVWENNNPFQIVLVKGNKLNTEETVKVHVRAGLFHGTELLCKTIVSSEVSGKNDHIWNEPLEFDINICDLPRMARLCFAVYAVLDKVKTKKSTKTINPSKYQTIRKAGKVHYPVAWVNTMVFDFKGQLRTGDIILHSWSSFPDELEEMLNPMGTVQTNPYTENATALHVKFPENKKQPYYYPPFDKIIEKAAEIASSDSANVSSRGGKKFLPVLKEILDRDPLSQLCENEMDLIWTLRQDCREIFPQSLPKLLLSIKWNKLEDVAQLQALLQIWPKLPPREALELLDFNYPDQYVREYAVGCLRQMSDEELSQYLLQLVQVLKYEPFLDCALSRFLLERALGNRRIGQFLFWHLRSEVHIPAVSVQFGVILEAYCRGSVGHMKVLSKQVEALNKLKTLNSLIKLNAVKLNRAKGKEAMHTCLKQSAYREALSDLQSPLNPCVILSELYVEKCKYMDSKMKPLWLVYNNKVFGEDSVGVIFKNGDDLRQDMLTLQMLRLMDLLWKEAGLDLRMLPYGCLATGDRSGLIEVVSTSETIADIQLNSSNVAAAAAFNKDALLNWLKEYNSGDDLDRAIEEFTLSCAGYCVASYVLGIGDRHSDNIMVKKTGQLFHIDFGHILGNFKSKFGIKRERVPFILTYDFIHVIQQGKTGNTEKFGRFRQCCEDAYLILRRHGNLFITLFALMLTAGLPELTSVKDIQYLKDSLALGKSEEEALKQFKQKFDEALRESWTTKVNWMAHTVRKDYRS
# T2 sequence (P27986 whole entry partner): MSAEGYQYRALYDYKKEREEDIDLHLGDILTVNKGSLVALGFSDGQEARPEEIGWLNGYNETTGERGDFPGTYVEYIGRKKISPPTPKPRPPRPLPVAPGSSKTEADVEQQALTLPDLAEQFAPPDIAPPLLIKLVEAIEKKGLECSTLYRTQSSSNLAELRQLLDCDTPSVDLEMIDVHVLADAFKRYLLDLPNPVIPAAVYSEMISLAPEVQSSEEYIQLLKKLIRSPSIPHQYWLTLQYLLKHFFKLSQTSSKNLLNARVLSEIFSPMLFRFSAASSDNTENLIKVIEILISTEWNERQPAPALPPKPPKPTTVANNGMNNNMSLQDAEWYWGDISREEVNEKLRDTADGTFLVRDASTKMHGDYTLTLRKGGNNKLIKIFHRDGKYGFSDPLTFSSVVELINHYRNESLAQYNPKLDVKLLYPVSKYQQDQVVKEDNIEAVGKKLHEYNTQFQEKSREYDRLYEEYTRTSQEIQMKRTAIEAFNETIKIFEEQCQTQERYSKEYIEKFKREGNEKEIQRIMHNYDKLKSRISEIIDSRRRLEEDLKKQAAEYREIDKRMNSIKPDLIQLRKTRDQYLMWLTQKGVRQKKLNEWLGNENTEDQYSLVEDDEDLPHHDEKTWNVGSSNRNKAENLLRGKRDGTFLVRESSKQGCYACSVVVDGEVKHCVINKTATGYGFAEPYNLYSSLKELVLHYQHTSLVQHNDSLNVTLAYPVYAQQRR
# T2 sequence (P62873 whole entry): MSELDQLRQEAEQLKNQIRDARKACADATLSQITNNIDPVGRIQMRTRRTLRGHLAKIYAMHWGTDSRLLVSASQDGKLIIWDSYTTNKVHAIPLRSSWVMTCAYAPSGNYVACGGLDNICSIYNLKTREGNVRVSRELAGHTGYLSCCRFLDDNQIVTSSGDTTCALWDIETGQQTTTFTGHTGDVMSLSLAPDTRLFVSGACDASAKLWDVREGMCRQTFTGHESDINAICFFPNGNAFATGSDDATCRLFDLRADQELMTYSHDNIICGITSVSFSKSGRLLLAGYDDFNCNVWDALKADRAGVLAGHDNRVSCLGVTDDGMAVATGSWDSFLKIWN
# T2 sequence (P59768 with tags, fused parts or gaps partner limits assumed): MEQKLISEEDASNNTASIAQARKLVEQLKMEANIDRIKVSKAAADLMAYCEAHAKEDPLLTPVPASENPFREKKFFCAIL
# Method: 300 μl of a PI3K buffer (40 mM HEPES-Na (pH 7.4), 120 mM NaCl, 1 mM EGTA, 1 mM dithiothreitol, 1 mM β glycerophosphoric acid, 10 mM MgCl2, 0.1% BSA) was added to a 1.5-ml microtube, and to this were added 200 ng of the Gβ1γ2-Myc obtained in Example 20 (1), 160 ng of PI3-kinase β (PI3 Kinase (p110β/p85α), active, Upstate, Product No. 14-603), and a test substance. The mixture was left at room temperature for 30 minutes, to this was added 10 μl of a solution of an anti-cMyc antibody (9E10, 200 μg/ml, SantaCruz, Product No. sc-40), and the resulting mixture was left at room temperature for 2 hours. To the solution was added 25 μl of anti-mouse IgG agarose beads (American Qualex, Product No. 61060) which were washed with the same buffer, stirred at room temperature for 1 hour and centrifuged (10000 rpm, 1 minute) to remove the supernatant. Furthermore, the beads were washed with 0.5 ml of the buffer 3 times, eluted in a boiling SDS-containing buffer, and subjected to an SDS polyacrylamide electrophoresis. Then, the amounts of the p110β and the Gβ adsorbed to the beads were measured by a Western blot method using an anti-p110β antibody (SantaCruz, Product No. sc-602) and an anti-Gβ antibody (SantaCruz, Product No. sc-261).
# T1 sequence (P62873 whole entry): as the sequence (P62873 whole entry) above
# T1 sequence (P59768 with tags, fused parts or gaps partner limits assumed): as the sequence (P59768 with tags, fused parts or gaps partner limits assumed) above
Structure (SMILES),binding to Gβ1γ2-Myc (inhibition of 3H-labeled Compound 1 binding) (Gβ1γ2-Myc),"effect on PI3-kinase β activity ([1]; 30 μM, presence of Gβ1γ2-Myc, FIG. 13)","effect on PI3-kinase β activity ([1]; absence of the Gβ (Gβ1γ2-Myc), FIG. 14)","effect of enhancing the enzymatic activity of the PI3-kinase β ([1]; presence of Gβ1γ2-Myc, concentration-dependent, 0.1, 1, and 10 μM, FIG. 14)",effect on the binding between the Gβ and the p110β (PI3-kinase β) [2],"effect of enhancing the enzymatic activity of the PI3-kinase β ([1]; presence of Gβ1γ2-Myc, concentration-dependent, 100 μM and 1 mM, FIG. 14)"
O=C1NCC2=C1[C@@H](c1cccc3ccsc13)N(C(=O)CCc1ccccn1)[C@@H]1CCCC[C@H]1N2 [Compound 1],could be bound to the Gβγ2-Myc,significant activating effect only on the PI3-kinase β,no effects,significant effect of enhancing the enzymatic activity,enhanced,–
O=C1NCC2=C1[C@@H](c1ccccc1)N(C(=O)CO)[C@@H]1CCCC[C@H]1N2 [Compound 6],could be bound to the Gβγ2-Myc,–,–,–,enhanced,significant effect of enhancing the enzymatic activity
